Results published in article PMC10976160, “Comparative Pharmacokinetics Research of 13 Bioactive Components of Jieyu Pills in Control and Attention Deficit Hyperactivity Disorder Model Rats Based on UPLC-Orbitrap Fusion MS” (Molecules, 2024).
Where two headings read alike, the source gives them in different places.

Key:
[1] = Pharmacokinetics in ADHD model rats after gavage of JYPs; format: in vivo, SHR rats (ADHD model); details: for peak time: oral JYPs; for AUC(0-inf) / AUC(0-t) / Cmax / Tmax / half-life / MRT last / MRT inf: male, SHR, rat, plasma; for MRT last: read-out: MRT(0-t); for MRT inf: read-out: MRT(0-∞)
Description: Based on the established analytical method for plasma samples, a pharmacokinetic study was conducted on 13 constituents in the plasma of ADHD model rats after gavage of JYPs (Figure 3). The linearity of ln(AUC0-t)–ln(dose) and ln(Cmax)–ln(dose) was analyzed in the same way.
For the control experiment, healthy male Sprague Dawley (SD) rats of SPF grade ([…] ± 20 g) were purchased from Sipeifu (Beijing) Biotechnology Co., Ltd. (Beijing, China), Animal Quality Certificate No. 110324220102348616. For the ADHD model rats, healthy male SHR rats of SPF grade, weighing 220 ± 20 g, were purchased from SBF (Beijing) Biotechnology Co., Ltd. (Beijing, China), License No. SCXK (Yu) 2019-0010. The animals were accommodated in the Animal Center of Henan University of Traditional Chinese Medicine, which successfully underwent an ethical audit with ethics number DWLL202208003. The animals were bred under controlled conditions at a temperature of 24 °C and a relative humidity of 50 ± 2%. Before the experiment, the animals abstained from eating for 12 h and had unrestricted access to water. The feeding and experimental research conducted on the experimental animals adhered to the laws outlined in the Management of Experimental Animals in Henan Province.
JYPs were ground into a fine powder and sieved through 60-mesh sieves; then, 20 g of fine JYP powder was taken, having been weighed precisely. A precise volume of 50 mL of pure water was added and mixed well to prepare a 0.4 g/mL suspension solution of JYPs, which was then stored in the refrigerator at 4 °C.
This study involved 24 healthy male SD rats with a body mass of 220 ± 20 g and 24 healthy male ADHD rats with a body mass of 220 ± 20 g. Subjects abstained from food for a duration of 12 h before the experiment and consumed water without restriction. Both kinds of rats were randomly divided into four groups: a blank group, given an equal dose of water intragastrically, and 3 different administration groups: rats given the equivalent human dose of JYPs by gavage in doses of 1.080 g/kg/d, 2.160 g/kg/d, and 4.320 g/kg/d. Tail vein blood was collected at 0.083, 0.25, 0.5, 0.75, 1, 1.5, 2, 3, 4, 6, 8, 12, 18, and 24 h after dosing. About 0.5 mL of blood was collected in sodium heparin centrifugal tubes, then centrifuged at 4 °C for 10 min at a speed of 3500r/min. We took the upper layer and placed it at −80 °C for preservation.
We took 200 μL of plasma, added 600 μL of methanol solution and 50 μL of internal standard (100 ng/mL), and subjected it to shaking for 5 min, followed by centrifugation at 4 °C at 12,000 r/min for 10 min. The supernatant was collected and allowed to dry, then reconstituted with 50 μL of 50% methanol and centrifuged at 4 °C at 14,000 r/min for a further 10 min. The supernatant after this process was taken as the test solution. A volume of 5 μL was used for UPLC-MS analysis. The drug concentration in plasma was calculated with the aid of the internal standard.
Chromatographic conditions: Hypersil GOLD (100 × 2.1 mm, 1.9 μm) column; column temperature 35 °C; mobile phase acetonitrile (A)/0.1% formic acid aqueous solution (B); gradient elution; gradient elution program: 0–0.5 min (95% B–95% B), 0.5–8 min (95% B–50% B), 8–14 min (50% B–20% B), 14–20 min (20% B–5% B), 20–22 min (5% B–5% B), 22–25 min (95% B–95% B); flow rate 0.2 mL/min; injection volume 5 μL. The ion source was electrospray ionization (ESI), with positive and negative ion mode spray voltages of 3.50 and 3.0 kV, an ion transfer tube temperature of 300 °C, nitrogen as the carrier gas, a sheath gas pressure of 35 arb, an auxiliary gas pressure of 8 arb, and an auxiliary heater temperature of 275 °C.

[2] = design: method as in PMID 32135035; details: rats, oral dosing; cited from earlier work
[3] = ADHD model rats, oral JYPs high dose 4.320 g/kg/d (3rd of 3 values)
[4] = ADHD model rats, oral JYPs low dose 1.080 g/kg/d (1st of 3 values)
[5] = ADHD model rats, oral JYPs medium dose 2.160 g/kg/d (2nd of 3 values)
[6] = 1.08 g/kg/day, ADHD model rats, oral JYPs low dose 1.080 g/kg/d (1st of 3 values)
[7] = 2.16 g/kg/day, ADHD model rats, oral JYPs medium dose 2.160 g/kg/d (2nd of 3 values)
[8] = 4.32 g/kg/day, ADHD model rats, oral JYPs high dose 4.320 g/kg/d (3rd of 3 values)

AUMC(0-t) [1, 3] | AUMC(0-ꝏ) [1, 3] | AUMC(0-t) [1, 4] | AUMC(0-ꝏ) [1, 4] | AUMC(0-t) [1, 5] | AUMC(0-ꝏ) [1, 5] | AUC(0-inf) [1, 6] [ng·h/mL] | AUC(0-t) [1, 6] [ng·h/mL] | Cmax [1, 6] [ng/mL] | Tmax [1, 6] [min] | half-life [1, 6] [min] | MRT last [1, 6] [h] | MRT inf [1, 6] [h] | AUC(0-inf) [1, 7] [ng·h/mL] | AUC(0-t) [1, 7] [ng·h/mL] | Cmax [1, 7] [ng/mL] | Tmax [1, 7] [min] | MRT last [1, 7] [h] | MRT inf [1, 7] [h] | AUC(0-inf) [1, 8] [ng·h/mL] | SMILES | other results
2395.92± 288.80 ng/mL*(h)² | 5783.46± 3073.92 ng/mL*(h)² | 1392.40± 460.59 ng/mL*(h)² | 4853.64± 3957.39 ng/mL*(h)² | 1937.54± 771.89 ng/mL*(h)² | 5558.75± 2961.42 ng/mL*(h)² | 233 ± 91.2 | 164 ± 57.5 | 40.9 ± 22.9 | 30 ± 9.6 | 797 ± 424 | 8.75 ± 1.6 | 19.4 ± 9.93 | 324 ± 131 | 240 ± 96.6 | 53 ± 19.2 | 47.4 ± 11.4 | 8.13 ± 1.23 | 16.8 ± 3.55 | 387 ± 78.7 | C[C@H]1O[C@@H](O[C@H]2CC[C@@]3(C)[C@@H](CC[C@]4(C)[C@@H]3C=C[C@]35OC[C@@]6(CCC(C)(C)C[C@H]63)[C@@H](O)C[C@]54C)[C@]2(C)CO)[C@H](O)[C@@H](O[C@@H]2O[C@H](CO)[C@@H](O)[C@H](O)[C@H]2O)[C@H]1O [Saikosaponin A] | peak time ([1]; ADHD model rats): less than 1 h; Clearances [1, 3]: 2855.71 ± 621.15 mL/h; Vss [1, 3]: 40360.07 ± 12917.92 mL; Clearances [1, 4]: 1291.22 ± 525.61 mL/h; Vss [1, 4]: 23782.60 ± 13625.69 mL; Vss [1, 5]: 35282.72 ± 25449.21 mL; MRT(0-t), ADHD rats compared with control rats ([1]; all concentrations): significantly higher; AUC(0-t), model rats compared with control rats ([1]; high-dose administration group): significantly greater; half-life [1, 7]: 734 ± 169 min; AUC(0-t) [1, 8]: 307 ± 55.6 ng·h/mL; Cmax [1, 8]: 73.1 ± 22.6 ng/mL; Tmax [1, 8]: 34.8 ± 7.8 min; half-life [1, 8]: 618 ± 254 min; MRT last [1, 8]: 7.95 ± 1.2 h; MRT inf [1, 8]: 14.5 ± 5.42 h
1294.18± 361.60 ng/mL*(h)² | 3035.93± 850.28 ng/mL*(h)² | 761.68± 201.22 ng/mL*(h)² | 2701.81± 992.13 ng/mL*(h)² | 1149.72± 377.93 ng/mL*(h)² | 3004.18± 2085.30 ng/mL*(h)² | 132 ± 32.3 | 91.3 ± 24.6 | 22.6 ± 2.41 | 34.8 ± 7.8 | 899 ± 354 | 8.43 ± 0.96 | 20.3 ± 5.6 | 188 ± 55.2 | 145 ± 32.8 | 33.1 ± 3.36 | 32.4 ± 15 | 7.8 ± 1.36 | 14.8 ± 6.52 | 201 ± 50 | C[C@H]1O[C@@H](O[C@H]2CC[C@@]3(C)[C@@H](CC[C@]4(C)[C@@H]3C=C[C@]35OC[C@@]6(CCC(C)(C)C[C@H]63)[C@H](O)C[C@]54C)[C@]2(C)CO)[C@H](O)[C@@H](O[C@@H]2O[C@H](CO)[C@@H](O)[C@H](O)[C@H]2O)[C@H]1O [Saikosaponin D] | peak time ([1]; ADHD model rats): less than 1 h; Clearances [1, 3]: 3506.08 ± 856.33 mL/h; Vss [1, 3]: 53202.65 ± 17657.23 mL; Clearances [1, 4]: 1343.52 ± 399.07 mL/h; Vss [1, 4]: 26784.08 ± 8767.24 mL; Clearances [1, 5]: 1952.91 ± 715.40 mL/h; Vss [1, 5]: 26532.70 ± 7619.14 mL; MRT, model rats compared with control rats ([1]; high-dose): higher; half-life [1, 7]: 637 ± 298 min; AUC(0-t) [1, 8]: 156 ± 38.6 ng·h/mL; Cmax [1, 8]: 41.5 ± 12.4 ng/mL; Tmax [1, 8]: 22.8 ± 8.4 min; half-life [1, 8]: 619 ± 153 min; MRT last [1, 8]: 8.26 ± 0.54 h; MRT inf [1, 8]: 15.2 ± 2.75 h; AUC, ADHD model rats compared with control rats ([1]; medium- and high-dose): higher
458.69± 201.28 ng/mL*(h)² | 1348.99± 756.73 ng/mL*(h)² | 322.64± 100.23 ng/mL*(h)² | 870.35± 311.46 ng/mL*(h)² | 383.83± 150.84 ng/mL*(h)² | 1224.58± 657.13 ng/mL*(h)² | 49.3 ± 14.7 | 36.7 ± 18.2 | 4.07 ± 1.85 | 100 ± 72.6 | 767 ± 192 | 8.9 ± 1.12 | 17.9 ± 4.8 | 62.2 ± 24.5 | 44.7 ± 18.2 | 5.57 ± 2.26 | 67.8 ± 26.4 | 8.72 ± 0.8 | 20 ± 7.8 | 69.7 ± 27.1 | CCC/C=C1\OC(=O)C2=C1CCC=C2 [Z-Ligustilide] | t1/2 [1, 5]: 14.63 ± 7.18 h; AUC(0-t) [1, 8]: 49.5 ± 16.8 ng·h/mL; Cmax [1, 8]: 6.63 ± 1.78 ng/mL; Tmax [1, 8]: 57.6 ± 6 min; half-life [1, 8]: 749 ± 223 min; MRT last [1, 8]: 8.9 ± 1.5 h; MRT inf [1, 8]: 18 ± 5 h; oral bioavailability [2]: relatively poor
